Results from the METLIN SMRT retention time set (Domingo-Almenara et al. 2019).

Experiment: gradient 5% acetonitrile 3 min, to 50% in 2 min, to 85% in 15 min, held 3 min, 100 µL/min
Details: column: Zorbax Extend-C18 2.1 x 50 mm; eluents: water / acetonitrile, 0.1% formic acid
Summary of the method: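 A Zorbax Extend-C18 column (2.1 × 50 mm, 1.8 μm) run at 100 μL/min with water and acetonitrile, both containing 0.1% formic acid, separated mixtures of ~100 pure standards. The HPLC was coupled to a quadrupole time-of-flight mass spectrometer operated in positive and negative ionization mode, with dead and dwell volumes of 40 μL and 900 μL. Each retention time was taken from a computationally picked adduct peak that was then manually inspected.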

RP-LC retention time [s]	SMILES
1070	Cc1noc(C)c1S(=O)(=O)N1CCC2(CC1)CC(OCc1ccccc1)CCO2 (centres undefined)
659	COc1ccc(S(=O)(=O)N2CC3CN(C(=O)C4CCCO4)CC(C2)O3)cc1 (centres undefined)
808	Cc1cc(-c2nnc(-c3ccc(F)cc3)o2)c(C)n1CC(=O)N1CCCC1
726	Cc1nc(C2CC23CCN(S(=O)(=O)c2cccnc2)CC3)no1 (centres undefined)
547	Cc1ccc(-c2nnc(C)c(NCCN3CCOCC3)n2)cc1
884	CCCNC(=O)c1cn(-c2ccc(S(=O)(=O)N3CCCC(C)C3)cn2)cn1 (centres undefined)
631	COC[C@@H]1CN(Cc2ccc3cc[nH]c3c2)C[C@H]1c1nc(C)no1
832	COc1ccc(Cn2nnc(C(=O)NCC3CCCO3)c2-n2cccc2)cc1 (centres undefined)
698	Cc1ccc(C)c(NC(=O)N2CCC(c3cc(N)on3)CC2)c1
708	COCCC(=O)NC1CCN(C2=NS(=O)(=O)C(c3ccc(C)cc3)=C2C)CC1
801	Cc1nnc(-c2ccc3ccn(CC(=O)N4CCN(c5ccccc5)CC4)c3c2)o1
680	Cc1ccc(-c2nc(CN3CCSCC3)c(C)o2)cc1
1030	CC1CCN(S(=O)(=O)c2ccc3c(c2)CCCC(=O)N3CC(=O)N2CCc3ccccc32)CC1
788	Cc1ccccc1N1CCN(S(=O)(=O)c2cc3n(c2)CCCNC3=O)CC1
888	O=S(=O)(c1ccccc1)N1CC(n2cc(COc3ccc(F)cc3)nn2)C1
704	CSCc1nnc(NC(=O)c2ccc(S(=O)(=O)N3CC(C)OC(C)C3)cc2)o1 (centres undefined)

RP-LC retention time [s]	SMILES
894	Cc1ccc(NC(=O)C2CCN(S(C)(=O)=O)c3ccccc3O2)c(C)c1 (centres undefined)
813	Cc1cccc(NC(=O)N2c3ccccc3NC3=C(C(=O)CCC3)C2c2ccco2)c1C (centres undefined)
1160	COc1ccc(NC(=O)C2CCCN(c3nc4c(s3)c(C)nn4-c3ccccc3)C2)c(OC)c1 (centres undefined)
830	COc1ccc(-c2noc(C3CCCN3C(=O)Nc3cccc(C)c3)n2)cc1 (centres undefined)
970	CCn1ccc(C(=O)N2c3ccccc3CC2c2nc(C(C)C)no2)n1 (centres undefined)
766	CCCNC(=O)C1CCN(c2ccc(SCC(=O)Nc3cc(C)c(Cl)cc3OC)nn2)CC1
610	Cc1ccc2nc(C)cc(C(=O)NC3CCCC3)c2c1
705	O=C(NCC1CCCO1)c1cn(-c2ccc(S(=O)(=O)N3CCCC3)cn2)cn1 (centres undefined)
842	N#Cc1cccc(Cn2cc(S(=O)(=O)N3CCCCC3)ccc2=O)c1
856	COc1cc(-c2ccnc3nc(CCc4ccccc4)nn23)cc(OC)c1OC
947	CCc1cccc(C)c1Nc1c(-c2ccccc2)nc2cnccn12
879	Cc1ccc(Cn2c(N3CCC(C(=O)NCC4CC4)CC3)nc3ccsc3c2=O)cc1
571	CCOC(=O)C1=C(CN2CCN(CC)CC2)NC(=O)NC1c1ccccc1Cl (centres undefined)
632	Cc1cc(C(=O)Nc2ccc(S(C)(=O)=O)cc2)no1
1050	C=CCN1C(=O)COc2ccc(-c3nc(NC(=O)CCc4ccccc4)sc3C)cc21

The next lines start with the compound.

SMILES	RP-LC retention time [s]
Cc1cccc(C)c1Nc1c(-c2cc(Br)ccc2O)nc2ncccn12	1090
O=C(NC1CCCN(c2cc(-c3ccncc3)[nH]n2)C1)c1ccc(F)cc1 (centres undefined)	599
Clc1ccc(-c2nc(-c3ccc4c(c3)ncn4CCN3CCOCC3)no2)cc1	683
Cc1nc([C@H]2CCN(Cc3ccc4[nH]ccc4c3)C[C@H]2N(C)C)n[nH]1	520
Cc1ccc2c(c1)N(CC(=O)NC1CC1)C(=O)C(C)O2 (centres undefined)	738
Cc1cc(F)ccc1NS(=O)(=O)c1cn(CC(C)C)c2ncccc12	986
COc1ccc(C(CNC(=O)c2cc(=O)c3cc(C)cc(C)c3o2)N(C)C)cc1 (centres undefined)	675
CC(C)NC(=O)c1ccc(OCC2CCN(C(=O)c3ccc(N(C)C)cc3)CC2)cc1	816
COc1ccccc1-c1nc(Cn2nnc(-c3nc(-c4ccncc4)no3)c2C)c(C)o1	872
O=C(NCC1CCOCC1)c1ccc(Br)cc1	708
COc1cc(Cl)c(NC(=O)Cn2cc(-c3nnc(C)o3)c3ccccc32)c(OC)c1	836
COc1cc(OC)c(NC(=O)c2cc3c(=O)n(CC(C)C)ccc3n2C)cc1Cl	924
Cc1noc([C@@H]2CN(C(=O)c3ccsc3)C[C@H]2C(N)=O)n1	601
Cc1cnc2cc(Cl)ccc2c1SCC(=O)O	816
NC[C@@H]1O[C@H](c2ccccc2)Cc2c1ccc(O)c2O	662
COc1cccc(-n2c(=O)c(C(=O)Nc3cccc(Cl)c3)c(O)c3cccnc32)c1	1330
Clc1ccc(Cl)c(-c2ccc(CNC3CC3)o2)c1	698
Cn1ncc2c(N3CCCCC3)nc(C(=O)N3CCN(c4ccc(Cl)cc4)CC3)nc21	1020
CCCNC(=O)C1CCN(c2ccc(SCC(=O)Nc3ccc(N(CC)CC)cc3C)nn2)CC1	576
c1cc(-c2sc(-c3ccncc3)c(-c3ccncc3)c2-c2ccncc2)ccn1	575

SMILES	RP-LC retention time [s]
COc1ccc(C2OC(c3cc(Cl)ccc3OC(C)=O)=NN2C(C)=O)cc1 (centres undefined)	956
Fc1ccc(Cn2cccc2-c2nc(-c3cccnc3)no2)cc1	1100
C[C@H](CCC(=O)NCCS(=O)(=O)O)[C@H]1CC[C@H]2[C@@H]3[C@H](O)C[C@@H]4C[C@H](O)CC[C@]4(C)[C@H]3C[C@H](O)[C@]12C	665
Cc1cccc(C(=O)NCCc2cn(CC(C)C)c3ncccc23)c1	827
O=C(NCC(c1ccsc1)N1CCc2ccccc2C1)C(=O)Nc1ccon1 (centres undefined)	572
COc1ccccc1CNc1c(-c2nc(C(C)C)no2)cnc2nc(C)ccc12	797
Cc1nc2cc(-c3noc(-c4ccsc4)n3)ccc2o1	977
O=C(NCc1n[nH]c(=O)c2ccccc12)c1ccc([N+](=O)[O-])o1	606
Cc1ccc(-n2cc3c(N4CCCC(C(=O)NCCC5=CCCCC5)C4)ncnc3n2)cc1 (centres undefined)	792
Cc1cccc(NC(=O)Cn2c(=O)n3nc(CCn4nc(C)cc4C)nc3c3ccccc32)c1	775
Cn1nc(-c2cccc(NC(=O)C3c4ccccc4Oc4ccccc43)c2)ccc1=O	814
CCOC(=O)CCNC(=O)N1[C@H]2CC[C@@H]1c1cnc(-c3ccc(F)cc3)nc1C2	797
COc1ccc(C(=O)N2CCCC2c2nc(-c3ccc(OC)c(OC)c3)no2)cc1 (centres undefined)	848
CCOCCCNC(=O)Cn1c(=O)c2cccn2c2ccccc21	689
CC1(C)C(=O)N(CC(=O)Nc2ccc3c(c2)OCO3)c2ccccc21	823
Cc1c(NC(=O)Nc2c(Cl)cccc2Cl)c(=O)n(-c2ccccc2)n1C	751
Cn1cnc2ccc(-c3noc(CNC(=O)c4ccccc4)n3)cc21	624
Cc1ccc(CNC(=O)N2CCc3nc(-c4ccc(F)cc4)ncc3C2)cc1	952
O=C(Cc1ccccc1Br)N1CCN(c2cc(-c3ccc(F)cc3)[nH]n2)CC1	867
O=C(O)c1ccccc1C(=O)Nc1cccc([N+](=O)[O-])c1	776

SMILES	RP-LC retention time [s]
CCc1ccc(-c2csc(NC3OC(=O)c4ccccc43)n2)cc1 (centres undefined)	833
Cc1nc(-c2cn(C)c3ncccc23)sc1C(=O)NCc1ccccc1F	874
O=C(Cc1csc2nc(-c3ccccc3)cn12)Nc1cccc(Br)c1	906
CCOc1ccc2nc(NC(=O)c3ccc(N4CCCC4)nn3)sc2c1	830
CC(C)CN1CCN(C(=O)c2ccc3[nH]c4c(c3c2)CN(C(=O)C2CCC2)CC4)CC1	621
O=C(Cn1cnc2c(-c3ccc(F)cc3)csc2c1=O)NC1CCCC1	854
COc1cc(OC)cc(N2C=C(C#N)S(=O)(=O)c3c(F)cccc32)c1	906
CCC(=O)N1CCc2cc(S(=O)(=O)CCC(=O)N3CC(C)CC(C)C3)ccc21 (centres undefined)	871
COCc1noc([C@@H]2CC(F)(F)CN2C(=O)c2coc(C)n2)n1	717
O=S(=O)(Nc1cccn2ncnc12)c1ccc(F)cc1	694
CC(C)(NC(=O)c1cnccn1)c1nc2c(c(C(N)=O)n1)OCO2	598
COc1ccc(-c2nc(CNC(=O)Cn3cnc(-c4cccs4)cc3=O)cs2)cc1	746
COc1ccc(CCCOC(Cn2ccnc2)c2ccc(OC)cc2)cc1 (centres undefined)	785
COc1ccc2nc(NC(=O)Nc3ccccc3)sc2c1	966
Cc1nnn(C23CC4CC(CC(C(=O)N5CCN(c6ccccn6)CC5)(C4)C2)C3)n1	597
CCc1nc2cc(-c3noc(-c4ccccc4C)n3)ccc2o1	1280
O=C(CCSc1ccccc1)N1CCN(CC(F)(F)F)CC1	870
COCCc1noc(-c2ccc(=O)n(CC(=O)Nc3cc(F)ccc3C)c2)n1	704
